Source: patent US20160199298A1, “FOSFESTROL FOR USE IN CURATIVE OR PALLIATIVE TREATMENT OF CANCER IN FEMALE MAMMALS” (CHAMAELEO PHARMA BVBA, priority 2012, published 2016)

What was measured:
MDA-MB-231 Cells = assay: in vitro direct cytotoxicity, Cell titer blue viability assay; assay type: cell-based; settings: MDA-MB-231 cells (hormone-insensitive), 72 hrs incubation, 1% FBS assay media
Procedure: (§1) Cells were maintained in vitro in RPMI 1640 containing 10% (v/v) heat inactivated fetal bovine serum (FBS) and 2 mM L-glutamine (growth media) at 37° C. in 5% CO2 and humidified conditions. Cells were harvested, washed, re-suspended into growth medium and counted. The cells were re-suspended into assay media (RPMI 1640+1% (v/v) heat inactivated FBS+ and 2 mM L-glutamine) at 0.5-1×10^5 cells/ml (dependent on cell type), and plated into 96-well assay plates (Corning, black-wall plates) and 50 μl/well aliquots.
(§2) Plates were incubated O/N at 37° C. in 5% humidified CO2 prior to addition of the compounds. […] Fosfestrol was dissolved in sterile water at stock concentration of 60 mM.
(§3) Stocks of all compounds were then serially diluted and final concentration to which cells were exposed were: 300, 150, 75, 37.5, 18.75, 9.4, 4.7, 2.3, 1.2 and 0.6 μM. Positive control was Cisplatin. Cisplatin was diluted in 1% FBS medium to give a stock concentration of 1 mM. Cisplatin stock was serial diluted and final concentration to which cells were exposed was: 100, 50, 25, 12.5, 6.3, […], 1.6, 0.8, 0.4, 0.2 μM.
(§4) Plates were incubated for 72 hrs at 37° C. in 5% humidified CO-2 after addition of the compounds. Viability of the cells was assessed with the Cell titer blue® (Promega) assay. […] Fluorescence was measured with a Flex II station plate reader. […]

MCF7 Cells = assay: as above; assay type: cell-based; settings: MCF7 cells (hormone-sensitive), 72 hrs incubation, 1% FBS assay media
Procedure: as §1, §2, §3, §4

[1] = system: postmenopausal women with metastatic breast cancer; settings: women initially treated; cited from earlier work
MCF-7 cells = settings: 4 days, 5 μM (2 μg/ml); cited from earlier work
[2] = system: hormone independent mammary carcinomas; settings: very high doses in vivo; cited from earlier work
[3] = system: postmenopausal breast cancer patients heavily exposed to endocrine therapy; settings: 15 mg daily p.o., cited from earlier work
[4] = prostate cancer patients, 5 mg p.o. per day; cited from earlier work

SMILES | 5-year survival [1] [%] | median survival [1] [years] | reduction in cell growth (MCF-7 cells) | other results
N.N.[Cl][Pt][Cl] [Cisplatin] |  |  |  | IC50 (MDA-MB-231 Cells): 13 µM; IC50 (MCF7 Cells): 2.8 µM
CC/C(=C(\c1ccccc1)c1ccc(OCCN(C)C)cc1)c1ccccc1 [tamoxifen] | 16 | 2.4 |  | 
CC/C(=C(/CC)c1ccc(OP(=O)(O)O)cc1)c1ccc(O)cc1 [DES monophosphate] |  |  | no effect at all | 
CC/C(=C(/CC)c1ccc(O)cc1)c1ccc(O)cc1 [DES, diethylstilbestrol] | 35 | 3.0 | no effect at all | effect on hormone independent mammary carcinomas [2]: no effect; efficacy in highly pretreated patients [3]: effective; patients who stopped therapy because of side effects ([3]; six patients): 19%; increase in non-cancer related deaths, mostly cardiovascular [4]: 36%
